From US20250136607A1 (REGOR PHARMACEUTICALS, INC., priority 2021, published 2025)
Read-outs that look alike come from different tables or passages of the source.

Columns and labels:
[1] = biological target: Protein arginine deiminase 4 (PAD4) (Homo sapiens, UniProt Q9UM07); assay: PAD4 ammonia release assay; format: biochemical
Method in brief: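 Ammonia release from BAEE substrate (2× mix 600 μM) was measured after 60 min at RT, following 15 min enzyme–compound preincubation (PAD4 2× 20 nM; pH 8.0 HEPES, 2 mM CaCl2, TCEP; 1.25% DMSO). Detection used OPA/DTT/EDTA for 120 min. % inhibition was taken versus reference-compound and DMSO controls; IC50 by four-parameter logistic fit.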

[2] = tested on: Citrullinated Histone H3 in dHL-60 cells (differentiated HL-60); assay: dHL-60 Cit-H3 ELISA assay; format: cell-based, human; conditions: Homo sapiens, read-out: Average IC50 Abs
Description: Cell culture: HL-60 cells were grown in IMDM+20% FBS+1% PS. The suspension cells were split into 1:5 with fresh media every 2-3 days to maintain cell density between 1×10^5 to 1×10^6 viable cells/mL. HL-60 cells differentiation: HL-60 cells were diluted to 1×10^5 cells/mL and differentiated into neutrophil-like cells with 100 mM DMF treatment for 72 hours in flask at 37° C., 5% CO2. dHL-60 Cells plating: • 1) HL-60 cells were collected, and the plate was centrifuged at 1000 rpm for 5 min. • 2) The HL-60 cells were diluted to 1.25×10^6 cells/mL and plated into a 96-well plate with 80 μL/well (i.e., 1×10^5/well). The plate was then incubated in the incubator (5% CO2, 37° C.) for 30 min to allow cells to adhere. Compound treatment: • 1) Preparation of compound serial dilution (source plate 500×, final DMSO concentration: 0.2%): briefly, compounds were dissolved in 100% DMSO to a concentration of 20 mM (the stock solution) and a 3-fold serial dilution with 8-point doses was performed. • 2) A 10× compound solution was pipetted up and down; and 10 μL/well of compounds were added into each well and incubated for 30 min. Stimulation with 25 μM A23187: • 1) A solution of A23187 (250 μM) in complete IMDM (IMDM+10% FBS+1% PS) containing 150 U/mL S7 Nuclease was prepared. The obtained solution was added 10 μL/well into each well and incubated for 3 h in the incubator (5% CO2, 37° C.). • 2) The dHL-60 cells treated with 10 μL/well complete IMDM without A23187 worked as negative control. Sample preparation: • 1) EDTA (0.5 M, 2 μL/well) were added to all the wells to stop the reaction. • 2) The plate was centrifuged at 1000 rpm for 5 min to collect supernatant. • 3) The supernatant was then diluted at least 1:2 before adding to the ELISA plate for citrullinated H3 analysis.
The standard was reconstituted with 2 mL of Assay buffer to 500 ng/mL. The reconstituted standard was relatively unstable at 4° C. and should be used within 3 hr after reconstitution.
• 1) 100 μL of the standards or diluted samples were added to the wells on the ELISA plate. • 2) The plate was covered with Cover Sheet and incubated for 2 h at room temperaturert on an orbital shaker.
On the day of the assay, the reagent was thawed at room temperaturert. For one plate, 1.2 mL of HRP Conjugate were diluted into 10.8 mL of assay buffer. A diluted HRP Conjugate was prepared shortly before use.
• 1) The wells were empties and rinsed four times with 1× wash buffer with 300 μL/well (Low speed). The plate was inverted between wash steps to empty the plate. After the last wash, the inverted plate was gently tapped on absorbent paper to remove the residual wash buffer. • 2) 100 μL of the HRP Conjugate working solution were added to each well of the plate. • 3) The plate was covered with cover sheet and incubated for 1 h at RT on an orbital shaker.
• 1) The wells were empties and rinsed four times with 1× wash buffer with 300 μL/well (low speed). The plate was inverted between wash steps to empty the plate. […] 100 uL of HRP STOP solution were added to each well of the plate.
• 1) Wipe the bottom of the plate with a clean tissue to remove fingerprints, dirt, etc. • 2) Read the plate at a wavelength of 450 nm.
The percent (%) inhibition at each concentration of compound was calculated based on and relative to the signal in the HPE and ZPE wells contained within each assay plate. The HPE wells worked as […], and the ZPE wells didn't contain any compound but rather DMSO (final concentration=0.1%) as […]. The concentrations and % inhibition values for tested compounds were plotted and the concentration of compound required for 50% inhibition (IC50) was determined with a Four-parameter logistic dose response equation. The endpoint value (IC50) for the reference peptide/compound was evaluated in each experiment as a quality control measure. If the endpoint value is within 3-fold of the expected value then the experiment is deemed acceptable. […]

[3] = PAD4 ammonia release assay, BAEE substrate, 60 min at RT, read-out: Average IC50 Abs
[4] = HL-60, 3 h, stimulation with 25 μM A23187 for 3 h

Protein arginine deiminase 4 (PAD4), sequence (Q9UM07 whole entry): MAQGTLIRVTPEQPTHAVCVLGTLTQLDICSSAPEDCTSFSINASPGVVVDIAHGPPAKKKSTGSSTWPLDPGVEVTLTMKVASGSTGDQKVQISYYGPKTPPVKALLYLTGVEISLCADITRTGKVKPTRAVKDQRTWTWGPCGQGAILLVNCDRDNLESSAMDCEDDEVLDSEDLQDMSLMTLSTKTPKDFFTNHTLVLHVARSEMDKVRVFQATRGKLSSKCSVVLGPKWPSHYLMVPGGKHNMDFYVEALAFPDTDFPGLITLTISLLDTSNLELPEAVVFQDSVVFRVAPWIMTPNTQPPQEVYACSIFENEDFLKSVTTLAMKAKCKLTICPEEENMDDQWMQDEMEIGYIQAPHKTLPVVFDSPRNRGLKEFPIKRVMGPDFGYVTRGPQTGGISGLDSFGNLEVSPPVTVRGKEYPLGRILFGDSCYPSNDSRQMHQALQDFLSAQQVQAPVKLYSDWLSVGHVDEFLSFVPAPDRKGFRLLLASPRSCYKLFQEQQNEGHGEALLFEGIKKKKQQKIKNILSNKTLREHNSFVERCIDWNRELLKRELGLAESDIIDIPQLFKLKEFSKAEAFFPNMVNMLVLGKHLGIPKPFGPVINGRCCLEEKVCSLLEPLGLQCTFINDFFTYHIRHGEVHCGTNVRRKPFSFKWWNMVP

| Structure (SMILES) | IC50 [1, 3] | IC50 [2, 4] | IC50 ([1]; PAD4 activity comparison, read-out: PAD4 Ammonia assay IC50) | relative potency of separated isomers in the PAD4 biochemical assay ([1]; SFC-separated stereoisomer pairs) | IC50 ([2]; HL-60, stimulation with 25 μM A23187 for 3 h) |
| --- | --- | --- | --- | --- | --- |
| C#CCn1c(-c2cc3cccc4c3n2C(CC)CN4CCCO)nc2cc(C(=O)N3C[C@H]4CC[C@@H]3[C@@H]4N)cc(F)c21 (stereo partly drawn) [Example 91, ((1R,4R,7R)-7-amino-2-azabicyclo[2.2.1]heptan-2-yl)(2-(3-ethyl-1-(3-hydroxypropyl)-2,3-dihydro-1H-pyrrolo[1,2,3-de]quinoxalin-5-yl)-7-fluoro-1-(prop-2-yn-1-yl)-1H-benzo[d]imidazol-5-yl)methanone] | 100 to 500 nM | 100 to 500 nM |  |  |  |
| CCC1CN(CCC(N)=O)c2cccc3cc(-c4nc5cc(C(=O)N6C[C@H](N)C[C@@H](F)C6)cc(OC)c5n4C)n1c23 (stereo partly drawn) [Example 94, 3-(5-(5-((3R,5R)-3-amino-5-fluoropiperidine-1-carbonyl)-7-methoxy-1-methyl-1H-benzo[d]imidazol-2-yl)-3-ethyl-2,3-dihydro-1H-pyrrolo[1,2,3-de]quinoxalin-1-yl)propanamide] | ≤ 100 nM | 100 to 500 nM |  |  |  |
| CC(C)C1CN(CCCO)c2cccc3cc(-c4nc5cc(C(=O)N6C[C@H]7CC[C@@H]6[C@@H]7N)cc(F)c5n4C)n1c23 (stereo partly drawn) [Example 103, ((1R,4R,7R)-7-amino-2-azabicyclo[2.2.1]heptan-2-yl)(7-fluoro-2-(1-(3-hydroxypropyl)-3-isopropyl-2,3-dihydro-1H-pyrrolo[1,2,3-de]quinoxalin-5-yl)-1-methyl-1H-benzo[d]imidazol-5-yl)methanone] | 100 to 500 nM |  |  |  | ≤ 100 nM |
| CC(C)C1CNc2cccc3cc(-c4nc5cc(C(=O)N6C[C@H]7CC[C@@H]6[C@@H]7N)cc(F)c5n4C)n1c23 (stereo partly drawn) [Example 104, ((1R,4R,7R)-7-amino-2-azabicyclo[2.2.1]heptan-2-yl)(7-fluoro-2-(3-isopropyl-2,3-dihydro-1H-pyrrolo[1,2,3-de]quinoxalin-5-yl)-1-methyl-1H-benzo[d]imidazol-5-yl)methanone] | 100 to 500 nM | ≤ 100 nM | 130 nM |  |  |
| CC(C)[C@H]1CNc2cccc3cc(-c4nc5cc(C(=O)N6C[C@H]7CC[C@@H]6[C@@H]7N)cc(F)c5n4C)n1c23 [Example 106, ((1R,4R,7R)-7-amino-2-azabicyclo[2.2.1]heptan-2-yl)(7-fluoro-2-((S)-3-isopropyl-2,3-dihydro-1H-pyrrolo[1,2,3-de]quinoxalin-5-yl)-1-methyl-1H-benzo[d]imidazol-5-yl)methanone] | 100 to 500 nM | ≤ 100 nM |  | more potent than Example 105 |  |
| CCC1CNc2cccc3cc(-c4nn5cc(C(=O)N6C[C@H]7CC[C@@H]6[C@@H]7N)cc(F)c5c4C)n1c23 (stereo partly drawn) [Example 140, [(1R,4R,7R)-7-amino-2-azabicyclo[2.2.1]heptan-2-yl]-[2-(11-ethyl-1,9-diazatricyclo[6.3.1.0^4,12]dodeca-2,4,6,8(12)-tetraen-2-yl)-4-fluoro-3-methyl-pyrazolo[1,5-a]pyridin-6-yl]methanone] | 100 to 500 nM | 500 to 5000 nM |  |  |  |

Second part, led by results:

| IC50 [1, 3] | IC50 [2, 4] | IC50 ([1]; PAD4 activity comparison, read-out: PAD4 Ammonia assay IC50) | relative potency of separated isomers in the PAD4 biochemical assay ([1]; SFC-separated stereoisomer pairs) | Structure (SMILES) | IC50 ([2]; HL-60, stimulation with 25 μM A23187 for 3 h) |
| --- | --- | --- | --- | --- | --- |
| 100 to 500 nM | ≤ 100 nM |  |  | CCC1CN(CCCO)c2cccc3cc(-c4nc5cc(C(=O)N6C[C@H]7CC[C@@H]6[C@@H]7N)cc(OC)c5n4C)n1c23 (stereo partly drawn) [Example 85, ((1R,4R,7R)-7-amino-2-azabicyclo[2.2.1]heptan-2-yl)(2-(3-ethyl-1-(3-hydroxypropyl)-2,3-dihydro-1H-pyrrolo[1,2,3-de]quinoxalin-5-yl)-7-methoxy-1-methyl-1H-benzo[d]imidazol-5-yl)methanone] |  |
| 100 to 500 nM | 100 to 500 nM |  |  | CCC1CN(CCC(C)(C)O)c2cccc3cc(-c4nc5cc(C(=O)N6C[C@H]7CC[C@@H]6[C@@H]7N)cc(F)c5n4C)n1c23 (stereo partly drawn) [Example 88, ((1R,4R,7R)-7-amino-2-azabicyclo[2.2.1]heptan-2-yl)(2-(3-ethyl-1-(3-hydroxy-3-methylbutyl)-2,3-dihydro-1H-pyrrolo[1,2,3-de]quinoxalin-5-yl)-7-fluoro-1-methyl-1H-benzo[d]imidazol-5-yl)methanone] |  |
| 100 to 500 nM | ≤ 100 nM |  |  | CCC1CN(CCCO)c2cccc3cc(-c4nc5cc(C(=O)N6C[C@H]7CC[C@@H]6[C@@H]7N)cc(F)c5n4CC4COC4)n1c23 (stereo partly drawn) [Example 92, ((1R,4R,7R)-7-amino-2-azabicyclo[2.2.1]heptan-2-yl)(2-(3-ethyl-1-(3-hydroxypropyl)-2,3-dihydro-1H-pyrrolo[1,2,3-de]quinoxalin-5-yl)-7-fluoro-1-(oxetan-3-ylmethyl)-1H-benzo[d]imidazol-5-yl)methanone] |  |
| 100 to 500 nM | 100 to 500 nM |  |  | CCC1CN(CCCOC)c2cccc3cc(-c4nc5cc(C(=O)N6C[C@H]7CC[C@@H]6[C@@H]7N)cc(F)c5n4CC)n1c23 (stereo partly drawn) [Example 100, ((1R,4R,7R)-7-amino-2-azabicyclo[2.2.1]heptan-2-yl)(1-ethyl-2-(3-ethyl-1-(3-methoxypropyl)-2,3-dihydro-1H-pyrrolo[1,2,3-de]quinoxalin-5-yl)-7-fluoro-1H-benzo[d]imidazol-5-yl)methanone] |  |
| 100 to 500 nM | 100 to 500 nM |  |  | CC(C)C1CN(C)c2cccc3cc(-c4nc5cc(C(=O)N6C[C@H]7CC[C@@H]6[C@@H]7N)cc(F)c5n4C)n1c23 (stereo partly drawn) [Example 107, ((1R,4R,7R)-7-amino-2-azabicyclo[2.2.1]heptan-2-yl)(7-fluoro-2-(3-isopropyl-1-methyl-2,3-dihydro-1H-pyrrolo[1,2,3-de]quinoxalin-5-yl)-1-methyl-1H-benzo[d]imidazol-5-yl)methanone] |  |
| 100 to 500 nM | 100 to 500 nM |  |  | Cn1c(-c2cc3cc(F)cc4c3n2C(C2CC2)CN4)nc2cc(C(=O)N3C[C@H]4CC[C@@H]3[C@@H]4N)cc(F)c21 (stereo partly drawn) [Example 122, ((1R,4R,7R)-7-amino-2-azabicyclo[2.2.1]heptan-2-yl)(2-(3-cyclopropyl-8-fluoro-2,3-dihydro-1H-pyrrolo[1,2,3-de]quinoxalin-5-yl)-7-fluoro-1-methyl-1H-benzo[d]imidazol-5-yl)methanone] |  |
| ≤ 100 nM | ≤ 100 nM |  |  | Cn1c(-c2cc3ccc(S(C)(=O)=O)c4c3n2C(C2CC2)CN4)nc2cc(C(=O)N3C[C@H]4CC[C@@H]3[C@@H]4N)cc(F)c21 (stereo partly drawn) [Example 123, ((1R,4R,7R)-7-amino-2-azabicyclo[2.2.1]heptan-2-yl)(2-(3-cyclopropyl-9-(methylsulfonyl)-2,3-dihydro-1H-pyrrolo[1,2,3-de]quinoxalin-5-yl)-7-fluoro-1-methyl-1H-benzo[d]imidazol-5-yl)methanone] |  |
| 100 to 500 nM | 100 to 500 nM |  |  | CCC1CNc2cc(F)cc3cc(-c4nc5cc(C(=O)N6C[C@H]7CC[C@@H]6[C@@H]7N)cc(F)c5n4C)n1c23 (stereo partly drawn) [Example 130, ((1R,4R,7R)-7-amino-2-azabicyclo[2.2.1]heptan-2-yl)(2-(3-ethyl-8-fluoro-2,3-dihydro-1H-pyrrolo[1,2,3-de]quinoxalin-5-yl)-7-fluoro-1-methyl-1H-benzo[d]imidazol-5-yl)methanone] |  |
